In paper PMC9234961 (Journal of Medicinal Chemistry, 2022):
Values after ≈ are worked out from the molar mass of the structure shown. Values joined by “and” are separate entries in the source; they are usually repeats but may differ in a detail not shown here. Identical values can stand only once. Like-named read-outs stand apart in the source and are kept apart here.

What was measured:
[1] = biological target: endogenous BCL6 in OCI-Ly1 cells (Homo sapiens, UniProt P41182); test: cell-based; conditions: for MSD degrader assay [OCI-Ly1] Dmax: mean maximal degradation of BCL6; for MSD degrader assay [OCI-LY1] pDC50 mean: mean of replicates; for degradation of BCL6 (in words): OCI-Ly1 MSD assay
[2] = Microsomal clearance assay (MLM); assay type: in vitro ADME; conditions: female, CD1, pH 7.4; mouse liver microsomes, 1 μM compound
Description: (§1) 6. Supplementary experimental: in vitro DMPK assays
(§2) 6.1 Microsomal clearance assay
(§3) Microsomal clearance was determined in female CD1 mice, female Sprague–Dawley rats, and mixed gender human liver microsomes obtained from BioIVT (Peterborough, U.K.) following incubation of 1 μM compound at 37 °C in 0.5 mg/mL microsomal protein, 3 mmol/L MgCl2, 1 mmol/L NADPH, 2.5 mmol/L and 10 mmol/L phosphate buffer (pH 7.4) (all purchased from Sigma-Aldrich, Gillingham, U.K). Reactions were started by addition of the cofactors following 10 min preincubation of microsomes with test compound and were terminated at −1, 0, 5, 10, 15, and 30 min with three volumes of ice-cold methanol containing internal standard. Samples were centrifuged at 2800g for 30 min at 4 °C and the supernatants analyzed.
(§4) Control incubations were prepared as above with omission of cofactors. Compound measurements were […]
(§5) separation with a 3 min gradient of 0.1% formic acid in methanol on a Kinetex C18, 50 × 2.1 mm 2.6 μm UPLC column (Phenomenex, Macclesfield, UK). […]

[3] = Microsomal clearance assay (HLM); assay type: in vitro ADME; conditions: human liver microsomes, 1 μM compound; for microsomal CLint at 1 μM: both sexes, pH 7.4
Description: as §1, §2, §3, §4, §5

[4] = Microsomal clearance assay (RLM); assay type: in vitro ADME; conditions: rat liver microsomes, 1 μM compound; for microsomal CLint at 1 μM: female, Sprague-Dawley, pH 7.4
Description: as §1, §2, §3, §4, §5

[5] = logD7.4 assay (Chrom log D method); assay type: physicochemical; conditions: pH 7.4, read-out: Measured logD7.4
Description: Calibration, validation and in-house compounds were prepared at 1mM in 10% DMSO / 90% Trizma solution (100mM Trizma in 75/25 methanol/water). 3 µL standard injections (with needle wash) of all calibration, validation and in-house samples were made onto a Phenomenex Luna C8 column (3µm, 100 x 4.6 mm, 100A, Phenomenex, Torrence, USA). Chromatographic separation at 30°C was carried out using […]
2 mL/min. The gradient was held at 0:100 water:organic for 0.8 minutes, then returned to the starting conditions of 95:5 water:organic for 0.2 minutes. The column was re-equilibrated for 5 minutes at the […]

NMR solubility assay = assay type: physicochemical; conditions: read-out: Aq. Sol.
Description: 4. Supplementary experimental: physicochemical assays
0.5 mM TCEP, 10% D2O) was pipetted into the same well and mixed by up-down pipetting 3 times to create […]
It was then separated by centrifugation (1000 rpm
The plate was then sealed and incubated at room temperature for 20 hours, […]
165 µL of the supernatant was transferred to a 3 mm NMR tube (Bruker, Part No. Z112272) using liquid handler SamplePro Tube SJ S (Bruker). The concentration of the solubilized compound in solubility sample is measured by quantitative 1H-NMR using a single external standard (200 µM caffeine (Sigma, C1778) in PBS (pH 7.4) with 1% DMSO-d6).
The detail of the NMR method is as following: NMR data was collected on a Bruker Avance Neo 600 spectrometer equipped with a 5 mm TCI-CryoProbe. The 1H spectrum was referenced to the internal deuterated solvent. The operating frequency for 1H was 600 MHz. All NMR data were acquired at the […]
1H-NMR spectrum was acquired using a Bruker standard 1D lc1pngppsf2 pulse sequence with 32 scans.
The sweep width was 6.2 ppm with O1P set to 8.8 ppm, and the FID contained 16k time-domain data points. Relaxation delay was set to 20 sec. Water signal was suppressed. […]

in vitro [6] = assay type: in vitro ADME; conditions: pH 7.4, 10 µM, 16 h at 30 °C
in vitro [7] = assay type: in vitro ADME; conditions: bovine; fraction unbound in OCI-Ly1 DC50 assay medium; read-out: fu,media
human BCL6 BTB domain [8] = biological target: T1, human BCL6 BTB domain (Homo sapiens, UniProt P41182); test: biochemical
Description: (§6) Assays were performed in a 384-well black Proxiplate (Perkin Elmer) containing 1 nM Trx-6xHis-BCL6 (in
(§7) anti-6xHis-Terbium cryptate (CisBio Bioassays, France), in assay buffer (25 mM Hepes pH8, 100 mM NaCl,
(§8) 0.05% Tween20, 0.5 mM TCEP, 0.05% bovine serum albumin). Test compounds in DMSO or DMSO alone
(§9) were added to the wells using an ECHO550 acoustic dispenser (Labcyte Inc) to give the appropriate test
(§10) concentration in 0.7% v/v DMSO final. After 2 hours incubation at room temperature the plate was read
(§11) The % inhibition at each concentration was calculated by normalising FRET ratio to the
(§12) appropriate high (DMSO with all reagents) and low (DMSO without BCL6) controls. IC50 values were
(§13) determined using GraphPad Prism 6.0 or Dotmatics (Bishops Stortford, UK) software by fitting the
(§14) normalised data to a sigmoidal four-parameter logistic fit equation.

BCL6 in Karpas 422 cells = BCL6 in Karpas 422 cells (Homo sapiens, UniProt P41182); test: cell-based; conditions: read-out: MSD degrader assay [Karpas 422] DC50; Karpas 422 cells
Description: 3.2 Mesoscale Discovery (MSD) Degradation Assay
An MSD assay was developed for screening of compounds to determine the degradation of endogenous BCL6 in OCI-Ly1 cells. Briefly, test compounds in DMSO or DMSO alone to a total of 1332.5 nL/well were dispensed to a 96-well Nunc™ Edge 2 plate (ThermoFisher Scientific, 267544) using an Echo® 550 acoustic […]
supplemented with 10% heat-inactivated fetal bovine serum (Sera Plus, PAN Biotech, P30-3702) were […]
incubation at 37 °C + 5% CO2 the plate was centrifuged at 300 x g for 5 minutes. […]
plate washer for all wash and aspiration steps, media was removed and cells were rinsed with PBS, centrifuged as before and PBS removed. Cells were lysed in 50 µL ice-cold lysis buffer at pH 7.4 containing 50 mM Tris-HCl, 150 mM NaCl, 1 % Triton X-100 (v/v), 1 mM PMSF, 1 mM activated sodium vanadate, 1 mM EDTA, phosphatase inhibitors 2 and 3 (1:50 dilution) and protease inhibitor cocktail (1:100 dilution).
20 °C or continuing the assay. A 96-well MSD standard bind plate (MSD, L15XA-3) which was coated overnight with 1 µg/mL anti-human BCL6 goat antibody in PBS (R&D Systems, AF5046) was blocked in 3% BSA in TBS + 0.1% Tween-20 for 1 hour with shaking. Wells were emptied thoroughly before 40 µL/well of lysate was transferred from the cell plate. The MSD plate was incubated at RT for 1 hour with shaking then washed three times with TBS + 0.1 % Tween-20. Antibodies were prepared in TBS + 0.1% Tween-20 + 1% BSA. Anti-human BCL6 rabbit antibody (Cell Signalling Technology, 14895S) was added at 1:100 dilution at 25 µL/well. The plate was incubated and washed as before. MSD Sulfo-tag anti-rabbit detection antibody (MSD, R32AB-1) at 1:1000 dilution at 25 µL/well was added. The plate was incubated and washed as before and MSD Gold read buffer (MSD R92TG) at 1:1 dilution with water at 150 µL/well was added. The plate was read within 10 minutes on the MSD Quickplex reader. The % inhibition at each […]
3.3 Cell proliferation assay
Aldrich) supplemented with 10% FBS (Gibco). […]
transferred onto the cells.
Assay plates containing cells […]

human BCL6 BTB domain [9] = biological target: T1, human BCL6 BTB domain; conditions: for BCL6 TR-FRET pIC50 mean: mean of replicates
Description: as §6, §7, §8, §9, §10, §11, §12, §13, §14

HT = test: Cell proliferation assay (14 days), HT; conditions: Homo sapiens, HT, 336 h, read-out: HT GI50
Description: (§15) Cells were seeded in 96-well culture plates at a density of 2500 cells/well in RPMI-1640 medium (Sigma-
(§16) Aldrich) supplemented with 10% FBS (Gibco). Compounds were initially dispensed into 96-well U-bottom
(§17) plates using an Echo 550 acoustic dispenser (Labcyte Inc.), then diluted in RPMI-1640 medium and
(§18) transferred onto the cells. Cells were treated with 8 compound concentrations in duplicate, ranging from
(§19) with compound for 14 days, with medium changes at days 3, 7 and 10 carried out as follows: fresh 96-well
(§20) cell culture plates were prepared containing 100 µl medium plus compound at the assay concentrations
(§21) (white plates were used on day 10 to optimise luminescence measurement). Assay plates containing cells
(§22) were vortexed to mix and cell density in one control well was counted using a Coulter Z2 cell counter
(§23) (Beckman Coulter). The volume of medium containing 2500 cells in the control well was calculated and this volume of cells was transferred from every well of the assay plates to the corresponding well of the fresh plates containing compound. After 14 days, CellTiter Glo reagent (Promega) was added to the medium in each well of the assay plate at a ratio of 1:2, mixed on a plate shaker, then incubated at room temperature for 10 minutes. Luminescence was measured using an Envision plate reader (Perkin Elmer) and the relative luminescence at each compound concentration, compared to DMSO alone, was calculated. GI50 were determined using a 4-parameter curve fit in Dotmatics (Bishops Stortford, UK).

OCI-Ly1 = test: Cell proliferation assay (14 days), OCI-Ly1; conditions: Homo sapiens, OCI-Ly1, 336 h, read-out: OCI-Ly1 GI50
Description: as §15, §16, §17, §18, §19, §20, §21, §22, §23

OCI-Ly3 = test: Cell proliferation assay (14 days), OCI-Ly3; conditions: Homo sapiens, OCI-Ly3, 336 h, read-out: OCI-Ly3 GI50
Description: as §15, §16, §17, §18, §19, §20, §21, §22, §23

SU-DHL-4 = test: Cell proliferation assay (14 days), SU-DHL-4; conditions: Homo sapiens, SU-DHL-4, 336 h, read-out: SU-DHL-4 GI50
Description: as §15, §16, §17, §18, §19, §20, §21, §22, §23

Karpas 422 = test: Cell proliferation assay (14 days), Karpas 422; conditions: Homo sapiens, KARPAS-422, 336 h, read-out: Karpas 422 GI50
Description: as §15, §16, §17, §18, §19, §20, §21, §22, §23

[10] = OCI-Ly1, read-out: MSD degrader assay [OCI-LY1] Dmax individual replicates, single replicate values
[11] = OCI-Ly1, read-out: MSD degrader assay [OCI-Ly1] Dmax, mean maximal degradation of BCL6, OCI-Ly1 cells, 2 h
[12] = read-out: MSD degrader assay [OCI-LY1] DC50 individual replicates, single replicate values
[13] = read-out: MSD degrader assay [OCI-Ly1] DC50, geometric mean, OCI-Ly1 cells, 2 h incubation
[14] = BCL6 TR-FRET IC50 individual replicates, single replicate values
[15] = read-out: BCL6 TR-FRET IC50, geometric mean, BCOR-AF633 peptide, 2 h incubation
[16] = read-out: BCL6 TR-FRET IC50 individual replicates, single replicate values
[17] = reversed-phase HPLC on Phenomenex Luna C8 column
[18] = kinetic solubility by NMR in HEPES buffer at pH 8, 4% DMSO

SMILES | Dmax [1, 10] [%] | Dmax [1, 11] [%] | MSD degrader assay [OCI-Ly1] Dmax ([1]; OCI-Ly1 cells, 2 h) [%] | MSD degrader assay [OCI-LY1] pDC50 mean [1] | DC50 [1, 12] | DC50 [1, 13] | MSD degrader assay [OCI-LY1] Dmax individual replicates ([1]; single replicate values) | microsomal CLint at 1 μM [3] [µL/min/mg] | microsomal CLint at 1 μM [4] [µL/min/mg] | chromatographic logD [5] | IC50 (human BCL6 BTB domain [8]; [14]) | degradation of BCL6 (in words) [1] | microsomal CLint at 0.5 h, 1 µM [2] [µL/min/mg] | BCL6 TR-FRET pIC50 mean (human BCL6 BTB domain [9]) | IC50 (human BCL6 BTB domain [9]; [15]) [nM] | IC50 (human BCL6 BTB domain [9]; [16]) [nM] | chromatographic logD [5, 17] | solubility kinetic at 20 h (NMR solubility assay; [18]) [µM] | further results
C[C@H]1C[C@@H](O)CN(c2ncc(Cl)c(Nc3ccc4c(c3)n(CCC(C)(C)O)c(=O)n4C)n2)C1 (relative stereo) [compound 5, 5-((5-Chloro-2-(3-hydroxy-5-methylpiperidin-1-yl)pyrimidin-4-yl)amino)-3-(3-hydroxy-3-methylbutyl)-1-methyl-1,3-dihydro-2H-benzo[d]imidazol-2-one] | 91 | 88.8 | 89 | 7.4626 | 66 nM and 18 nM | 35 nM and 34.5 nM | 86.653% | 28 | 14 | 2.3 | 101 nM and 99.6 nM and 94.3 nM and 86.2 nM | – | – | – | – | – | – | – | DC50 ([1]; read-out: Calculated free DC50 [OCI-Ly1], DC50 corrected with fu,media): 12.4 nM; microsomal CLint at 1 μM [2]: 122 µL/min/mg; solubility kinetic at 20 h (NMR solubility assay; pH 8, aqueous buffer, kinetic from dmso stock): 40 µM (≈ 19 µg/mL); Papp (in vitro [6]; PAMPA): 23 ×10⁻⁶ cm/s; fraction unbound (in vitro [7]): 0.37; IC50 (human BCL6 BTB domain [8]; BCL6 TR-FRET IC50, geometric mean, BCOR-AF633 peptide, 2 h incubation): 95 nM; IC50 (human BCL6 BTB domain [8]; BCL6 TR-FRET pIC50 mean, mean of replicates): 95.1 nM
C[C@@H]1C[C@H](O)CN(c2ncc(Cl)c(Nc3ccc4c(c3)c3c(c(=O)n4C)OCC(F)(F)[C@H](C4CC4)N3)n2)C1 [12b CCT373567, (S)-10-((5-Chloro-2-((3S,5R)-3-hydroxy-5-methylpiperidin-1-yl)pyrimidin-4-yl)amino)-2-cyclopropyl-3,3-difluoro-7-methyl-1,2,3,4-tetrahydro-[1,4]oxazepino[2,3-c]quinolin-6(7H)-one] | < 30 | < 30 | > 30 | – | > 2000 nM | > 2000 nM | – | 3 | 3 | 2.9 | 3.9 nM and 2.4 nM (2×) and 2.6 nM | no degradation was seen | 90 | 8.5554 | 2.8 | 2.8 | – | – | degradation of BCL6 (in words) ([1]; listed as 12b): nondegrading isomer; DC50 (BCL6 in Karpas 422 cells): > 2000 nM; CLint (HLM) [3]: low clearance; CLint (RLM) [4]: low clearance; PAMPA (pH 7.4) (in vitro [6]): 16 ×10–6 cm s–1; GI50 (HT): 362 nM; GI50 (OCI-Ly1): 83 nM; GI50 (OCI-Ly3): 2140 nM; GI50 (SU-DHL-4): 820 nM; GI50 (Karpas 422): 38 nM
C[C@H]1CCCN(c2ncc(Cl)c(Nc3ccc4c(c3)c3c(c(=O)n4C)OCC(F)(F)[C@H](C4CC4)N3)n2)C1 [15a, (S)-10-((5-chloro-2-((S)-3-methylpiperidin-1-yl)pyrimidin-4-yl)amino)-2-cyclopropyl-3,3-difluoro-7-methyl-1,2,3,4-tetrahydro-[1,4]oxazepino[2,3-c]quinolin-6(7H)-one] | 88.4 | 85.5 | 86 | 8.1987 | 16 nM and 1.7 nM and 9.3 nM | 6.3 nM | 83.3% and 85.0% | – | – | – | 48 nM and 29.5 nM and 34.4 nM | degraders of BCL6 | 568 | 7.4377 | 36.5 | – | 4.9 | 0 | –
C[C@@H]1CCCN(c2ncc(Cl)c(Nc3ccc4c(c3)c3c(c(=O)n4C)OCC(F)(F)[C@H](C4CC4)N3)n2)C1 [15b, (S)-10-((5-Chloro-2-((R)-3-methylpiperidin-1-yl)pyrimidin-4-yl)amino)-2-cyclopropyl-3,3-difluoro-7-methyl-1,2,3,4-tetrahydro-[1,4]oxazepino[2,3-c]quinolin-6(7H)-one] | 73.4 | 72.1 | 72 | 7.4874 | 19.4 nM and 39.6 nM and 44.8 nM | 32.6 nM | 70.6% and 72.2% | – | – | – | 27.6 nM and 22.6 nM | degraders of BCL6 | 204 | 7.6089 | 24.6 | 23.8 | 5 | 0 | –
